Assays:
[1] = tested on: β-glucosidase; assay: β-glucosidase inhibition assay; type: biochemical; details: final concentration of 100 μM in every well; pH 6.8, 37 °C
[2] = biological target: α-glucosidase (Saccharomyces cerevisiae, UniProt P53341); assay: α-glucosidase inhibition assay; type: biochemical
Chain of α-glucosidase (P53341 whole entry): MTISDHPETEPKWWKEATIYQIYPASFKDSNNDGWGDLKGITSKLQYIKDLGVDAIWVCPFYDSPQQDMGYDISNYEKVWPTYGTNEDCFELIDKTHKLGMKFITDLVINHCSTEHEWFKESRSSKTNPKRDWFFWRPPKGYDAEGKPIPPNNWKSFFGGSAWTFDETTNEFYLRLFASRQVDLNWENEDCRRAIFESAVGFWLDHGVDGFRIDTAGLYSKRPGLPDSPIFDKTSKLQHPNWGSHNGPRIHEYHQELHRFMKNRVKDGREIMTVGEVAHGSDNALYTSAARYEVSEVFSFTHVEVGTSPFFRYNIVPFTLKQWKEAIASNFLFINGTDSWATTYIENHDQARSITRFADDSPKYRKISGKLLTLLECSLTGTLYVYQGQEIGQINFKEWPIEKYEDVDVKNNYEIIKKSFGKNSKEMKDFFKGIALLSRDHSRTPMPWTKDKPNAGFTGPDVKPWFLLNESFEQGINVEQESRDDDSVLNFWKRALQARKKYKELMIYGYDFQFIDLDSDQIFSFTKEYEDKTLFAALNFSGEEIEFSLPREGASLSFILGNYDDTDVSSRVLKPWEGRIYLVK

β-glucosidase % age inhibition [1] [%]	IC50 [2] [µM]	α-glucosidase inhibitory efficacy, folds stronger than acarbose ([2]; ratio of IC50 values versus acarbose) [folds]	SMILES
63.7	–	–	C[C@H]1O[C@H](O[C@H]2[C@H](O)[C@@H](O)[C@@H](O[C@H]3[C@H](O)[C@@H](O)C(O)O[C@@H]3CO)O[C@@H]2CO)[C@H](O)[C@@H](O)[C@@H]1N[C@H]1C=C(CO)[C@@H](O)[C@H](O)[C@H]1O (some centres unmarked) [acarbose, reference compound]
36.3	2.98 ± 0.04	–	O=C(N=c1scc(-c2ccc(F)cc2)n1-c1ccccc1F)c1ccccc1F [6c, 2-Fluoro-N-(3-(2-fluorophenyl)-4-(4-fluorophenyl)thiazol-2(3H)-ylidene)benzamide]
11.2	18.2 ± 0.02	–	COc1cc(C(=O)N=c2scc(-c3ccc(F)cc3)n2-c2ccc(F)c(Cl)c2)cc(OC)c1OC [6a, N-(3-(3-Chloro-4-fluorophenyl)-4-(4-fluorophenyl)thiazol-2(3H)-ylidene)-3,4,5-trimethoxybenzamide]
20.1	3.16 ± 0.15	–	O=C(N=c1scc(-c2ccc(F)cc2)n1-c1ccc(F)c(Cl)c1)c1ccc(F)cc1 [6g, N-(3-(3-Chloro-4-fluorophenyl)-4-(4-fluorophenyl)thiazol-2(3H)-ylidene)-4-fluorobenzamide]
17.5	4.33 ± 0.19	–	O=C(N=c1scc(-c2ccc(F)cc2)n1-c1ccc(F)cc1)c1ccccc1Cl [6h, N-(3,4-Bis(4-fluorophenyl) Thiazol-2(3H)-ylidene)-2-chlorobenzamide]
24.2	3.23 ± 0.07	–	O=C(N=c1scc(-c2ccc(F)cc2)n1-c1ccccc1F)c1ccccc1Cl [6b, 2-Chloro-N-(3-(2-fluorophenyl)-4-(4-fluorophenyl)thiazol-2(3H)-ylidene)benzamide]

Continued, molecule first:

SMILES	β-glucosidase % age inhibition [1] [%]	IC50 [2] [µM]	α-glucosidase inhibitory efficacy, folds stronger than acarbose ([2]; ratio of IC50 values versus acarbose) [folds]
O=C(N=c1scc(-c2ccc(F)cc2)n1-c1ccccc1F)c1cccc(F)c1 [6d, 3-Fluoro-N-(3-(2-fluorophenyl)-4-(4-fluorophenyl) Thiazol-2(3H)-ylidene)benzamide]	18.6	1.47 ± 0.05	~24
COc1cc(C(=O)N=c2scc(-c3ccc(F)cc3)n2-c2cccc(F)c2)cc(OC)c1OC [6i, N-(3-(3-Fluorophenyl)-4-(4-fluorophenyl)thiazol-2(3H)-ylidene)-3,4,5-trimethoxybenzamide]	15.4	8.31 ± 0.13	–
COc1cc(C(=O)N=c2scc(-c3ccc(F)cc3)n2-c2ccc(F)cc2)cc(OC)c1OC [6e, N-(3,4-Bis(4-fluorophenyl)thiazol-2(3H)-ylidene)-3,4,5-trimethoxybenzamide]	9.33	2.1 ± 0.06	–
O=C(N=c1scc(-c2ccc(F)cc2)n1-c1ccc(F)c(Cl)c1)c1ccccc1F [6j, N-(3-(3-Chloro-4-fluorophenyl)-4-(4-fluorophenyl)thiazol-2(3H)-ylidene)-2-fluorobenzamide]	12.8	12.5 ± 0.22	–

Reference: PMC10993276 (ACS Omega, 2024)
